Tests used:
Type in all cases: in vivo
Details in all cases: 250 g/ha, evaluated after 13 days, 100=total damage to plant, 0=no damage to plant
AMAPA [1] = assay: Pre-emergence biological efficacy
Protocol: (§1) Seeds of weeds and/or crops were sown in standard soil in pots. After cultivation for one day under controlled conditions in a glasshouse (at 24/19° C., day/night; 16 hours light), the plants were sprayed with an aqueous spray solution derived from the formulation of the technical active ingredient in a small amount of acetone and a special solvent and emulsifier mixture referred to as IF50 (11.12% Emulsogen EL360 TM+44.44% N-methylpyrrolidone+44.44% Dowanol DPM glycol ether), to create a 50 g/l solution which was then diluted using 0.2% Genapol XO80 as diluent to give the desired final dose of test compound.
(§2) The test plants were then grown under controlled conditions in the glasshouse (at 24/18° C., day/night; 15 hours light; 50% humidity) and watered twice daily. After 13 days the test was evaluated (100=total damage to plant; 0=no damage to plant).

ECHCG [2] = assay: Pre-emergence biological efficacy
Protocol: as §1, §2

EPHHL [3] = assay: Pre-emergence biological efficacy
Protocol: as §1, §2

IPOHE [4] = assay: Pre-emergence biological efficacy
Protocol: as §1, §2

LOLPE [5] = assay: Pre-emergence biological efficacy
Protocol: as §1, §2

SETFA [6] = assay: Pre-emergence biological efficacy
Protocol: as §1, §2

AMAPA [7] = assay: Post-emergence biological efficacy
Protocol: as §1, with “14 days” for “one day”
(§3) The test plants were then grown under controlled conditions in the glasshouse (at 24/18° C., day/night; 15 hours light; 50% humidity)and watered twice daily. After 13 days the test was evaluated (100=total damage to plant; 0=no damage to plant).

CHEAL = assay: Post-emergence biological efficacy
Protocol: as §1, with “14 days” for “one day”
as §3

DIGSA = assay: Post-emergence biological efficacy
Protocol: as §1, with “14 days” for “one day”
as §3

ECHCG [8] = assay: Post-emergence biological efficacy
Protocol: as §1, with “14 days” for “one day”
as §3

ELEIN = assay: Post-emergence biological efficacy
Protocol: as §1, with “14 days” for “one day”
as §3

EPHHL [9] = assay: Post-emergence biological efficacy
Protocol: as §1, with “14 days” for “one day”
as §3

IPOHE [10] = assay: Post-emergence biological efficacy
Protocol: as §1, with “14 days” for “one day”
as §3

LOLPE [11] = assay: Post-emergence biological efficacy
Protocol: as §1, with “14 days” for “one day”
as §3

SETFA [12] = assay: Post-emergence biological efficacy
Protocol: as §1, with “14 days” for “one day”
as §3

## CCOC(=O)C1(C)CC(c2nc(-n3c(=O)cc(C(F)(F)F)n(C)c3=O)c(F)cc2Cl)=NO1 (stereo not drawn) [Compound 14, ethyl 3-[3-chloro-5-fluoro-6-[3-methyl-2,6-dioxo-4-(trifluoromethyl)pyrimidin-1-yl]-2-pyridyl]-5-methyl-4H-isoxazole-5-carboxylate]
AMAPA [1]
  damage to plant, AMAPA: 100
ECHCG [2]
  damage to plant, ECHCG: 100
EPHHL [3]
  damage to plant, EPHHL: 100
IPOHE [4]
  damage to plant, IPOHE: 100
LOLPE [5]
  damage to plant, LOLPE: 90
SETFA [6]
  damage to plant, SETFA: 100
AMAPA [7]
  damage to plant, AMAPA: 100
CHEAL
  damage to plant, CHEAL: 100
DIGSA
  damage to plant, DIGSA: 100
ECHCG [8]
  damage to plant, ECHCG: 100
ELEIN
  damage to plant, ELEIN: 100
EPHHL [9]
  damage to plant, EPHHL: 100
IPOHE [10]
  damage to plant, IPOHE: 100
LOLPE [11]
  damage to plant, LOLPE: 100
SETFA [12]
  damage to plant, SETFA: 100
